Measured values taken from US20140137294A1, “GLUCOSINOLATE TRANSPORTER PROTEIN AND USES THEREOF” (UNIVERSITY OF COPENHAGEN, priority 2010, published 2014).

Tests used:
AtGTR2 [1] = molecular target: T1, AtGTR2 (Arabidopsis thaliana, UniProt Q9LV10); test: Substrate-induced currents in voltage-clamped Xenopus oocytes expressing AtGTR2; type: cell-based
T1 construct: expressed in transfected cells; host or cells: Xenopus oocytes injected with in vitro transcribed cRNA (vector pNB1u)
T1 sequence (Q9LV10 1-616): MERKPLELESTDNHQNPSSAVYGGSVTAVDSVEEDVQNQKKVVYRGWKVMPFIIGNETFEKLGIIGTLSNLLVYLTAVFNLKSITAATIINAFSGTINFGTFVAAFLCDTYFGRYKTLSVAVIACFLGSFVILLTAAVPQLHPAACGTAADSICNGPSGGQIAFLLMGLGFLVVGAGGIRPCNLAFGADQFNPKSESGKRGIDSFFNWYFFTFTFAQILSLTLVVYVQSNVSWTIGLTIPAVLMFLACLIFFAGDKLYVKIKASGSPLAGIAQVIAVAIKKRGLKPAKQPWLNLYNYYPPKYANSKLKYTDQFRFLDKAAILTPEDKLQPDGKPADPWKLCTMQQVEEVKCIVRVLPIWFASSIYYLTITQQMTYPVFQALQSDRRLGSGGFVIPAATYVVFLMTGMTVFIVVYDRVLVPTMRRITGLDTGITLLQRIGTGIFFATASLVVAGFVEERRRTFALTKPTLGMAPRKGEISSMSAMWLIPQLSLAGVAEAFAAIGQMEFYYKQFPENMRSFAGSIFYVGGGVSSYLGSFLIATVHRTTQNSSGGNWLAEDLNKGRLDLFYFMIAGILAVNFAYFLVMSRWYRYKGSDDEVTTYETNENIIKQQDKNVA
Experimental: FIG. 3: Biochemical analysis of AtGTR1 and 2 mediated GSL transport in Xenopus oocytes. A and B, pH dependence of AtGTR-mediated GSL transport. A, AtGTR2 mediated 4-MTB uptake measured by LC-MS analysis of oocyte extracts, n=3 oocytes. B, AtGTR1 currents induced by 1 mM 4-MTB were measured at different membrane potentials at pH 5 ([…]), pH 6 (♦), and pH 7 (▴). Currents were normalized to the current induced at pH 5 at −60 mV, error bars are SD, n=4 oocytes. C and D, kinetic analysis of AtGTR-mediated glucosinolate transport. Normalized glucosinolate dependent currents at a membrane potential of −60 mV are plotted against 4-MTB concentrations, line indicates a fit of the Michaelis-Menten equation to the data; error bars are SD. For AtGTR1 (n=6 oocytes); For AtGTR2 (n=5 oocytes). Each oocyte-dataset were normalized to current elicited at 100 μM 4-MTB. E and F, substrate specificity of AtGTRs. E, AtGTR1 and AtGTR2 uptake of 0.04 mM C-14 labeled pOHBG at pH 5 in the presence of 2 mM 4-MTB, 2 mM NO3^−, 2 mM glucose+2 mM SO4^−−, or a solution of 2 mM Ala-His+2 mM Asp-Ala+2 mM Gly-Leu+2 mM Ala-Phe+2 mM Gly-Glu+2 mM Gly-Gly-Gly, error bars are SD, n=8 oocytes. F, AtGTR1 currents induced by endogenous and exogenous glucosinolates, representative positive, negative and neutral dipeptides and two tripeptides Currents were normalized to the current induced by 100 μM 4-MTB at pH 5 clamped at −60 mV, error bars are SD, n=4 oocytes.
When current recordings were performed on oocytes expressing, respectively, AtGTR1 and AtGTR2 exposed to 100 μM 4-MTB at pH 5 and voltage clamped at −50 mV elicited inward currents in the 30 nA range. This indicates a net influx of positive ions through the AtGTRs upon exposure to GSLs. GSL-induced inward currents were voltage dependent increasing with hyperpolarizing membrane potential within the range of +30 to −120 mV (FIGS. 3B and F). […] This observation was also noticeable in substrate dependent transport rates measured by direct LC-MS detection of GSL uptake.

AtGTR2 [2] = molecular target: T1, AtGTR2; test: Glucosinolate uptake by AtGTR2 expressing oocytes, LC-MS analysis of oocyte extracts; type: cell-based; settings: data not shown

## CSCCCC/C(=N/OS(=O)(=O)O)S[C@@H]1O[C@H](CO)[C@@H](O)[C@H](O)[C@H]1O [4-MTB, 4-methylthiobutyl glucosinolate]
AtGTR2 [1]; 100 μM substrate, pH 5, voltage clamped at −50 mV, AtGTR2
  inward current: ~30 nA
AtGTR2 [1]; AtGTR2, 500 μM 4-MTB
  substrate dependent transport rate at 500 μM, lower than at 250 μM and 1 mM: 25%
AtGTR2 [1]; pH 5, clamped at −60 mV, Michaelis-Menten, AtGTR2
  Km: 18.7 ± 4.2 µM
AtGTR2 [2]
  uptake by AtGTR2 measured by LC-MS analysis of oocyte extracts: took up
